The data set can be described thus: photoluminescence quantum yield (fraction); solvent given as SMILES.
The mark [1] stands for this setting: in O=P(c1ccccc1)(c1ccccc1)c1ccccc1Oc1ccccc1P(=O)(c1ccccc1)c1ccccc1.

From the Deep4Chem optical property database come the findings set out here.

For `CC1(C)c2ccccc2N(c2ccc3c(ccc4nc5ccc6cc(N7c8ccccc8C(C)(C)c8ccccc87)ccc6c5nc43)c2)c2ccccc21`, the photoluminescence quantum yield was found to be 0.16 (in C1CCCCC1), 0.07 (in C1CCOC1), 0.11 (in Cc1ccccc1) and 0.05 (in ClCCl).
`O=c1c2cccc3cccc(c32)c2nc3ccccc3n12` gave a photoluminescence quantum yield (in ClCCl) of 0.71.
Still for that read-out and setting: for `CCn1c2ccc(-c3ccc(-c4cccs4)s3)cc2c2cc(-c3ccc(-c4cccs4)s3)ccc21` the value was 0.168; for `CCCc1ccc(C#Cc2cc(C#Cc3ccc(CCC)cc3)c3ccc4c(C#Cc5ccc(N(C)C)cc5)cc(C#Cc5ccc(CCC)cc5)c5ccc2c3c54)cc1`, 0.44.
The same measure, in the same setting: for `COC(=O)c1[nH]c(-c2ccc(OC)cc2)c2nnc3ccc(OC)cc3c12` the value was 0.282.
Same read-out and setting: the result for `C(#Cc1cccc2ccccc12)c1ncc(-c2ccccc2)o1` reads 0.28.
`Cn1c(=O)c(/N=N/c2ccc(S(=O)(=O)O)c3ccccc23)c(O)c2ccccc21`: under “in CS(C)=O”, the photoluminescence quantum yield is 0.02.
For `COc1ccc(C2=CC(c3ccccc3)=C(c3ccccc3)C2)c2ccccc12`, the photoluminescence quantum yield (in ClCCl) is 0.0685.
In turn, `CCCCN1C(=O)c2c(Br)c(Br)c3c4c(Br)c(Br)c5c6c(c(Br)c(Br)c(c7c(Br)c(Br)c(c2c37)C1=O)c64)C(=O)N(CCCC)C5=O` gave a photoluminescence quantum yield (in ClC(Cl)Cl) of 0.01.
In the case of `O=S(=O)(c1cccc(-n2c3ccccc3c3ccccc32)c1)c1cccc(-n2c3ccccc3c3ccccc32)c1`, the photoluminescence quantum yield (in CCCCC(CC)n1c2ccc(-n3c4ccccc4c4ccccc43)cc2c2cc(-n3c4ccccc4c4ccccc43)ccc21) stood at 0.109 and the photoluminescence quantum yield (in c1cc(-n2c3ccccc3c3ccccc32)cc(-n2c3ccccc3c3ccccc32)c1) was 0.218.
Regarding `Oc1ccccc1`, where the note is “in C1CCCCC1”, the photoluminescence quantum yield was 0.09.
Where the note is “in O”, `CC[N+]1(CC)CN2C(=N1)C(C(=O)O)=Cc1cc(OC)c(OC)cc12` displayed a photoluminescence quantum yield of 0.859.
`CCCCCCCCCCCCOc1cc2c3c(ccc4c5c(NC6CCCCC6)cc6c7c(ccc(c1c34)c75)C(=O)N(C1CCCCC1)C6=O)C(=O)N(C1CCCCC1)C2=O` returned a photoluminescence quantum yield (in ClC(Cl)Cl) of 0.01.
Regarding `Cc1ccccc1-c1nc(-c2ccccc2C)nc(-c2ccc(N3c4ccccc4C4(c5ccccc5-c5ccccc54)c4ccccc43)cc2C)n1`, under setting [1], the photoluminescence quantum yield was 0.62.
In turn, `Cc1cc2c(o1)=CC1=C(C(F)(F)F)c3cc4oc(C)cc4n3[B-](F)(F)[N+]=21` came in with a photoluminescence quantum yield (in C1CCOC1) of 0.92; a photoluminescence quantum yield (in CC#N) of 0.84; a photoluminescence quantum yield (in CCO) of 0.87; a photoluminescence quantum yield (in CO) of 0.7; a photoluminescence quantum yield (in Cc1ccccc1) of 0.97; a photoluminescence quantum yield (in ClC(Cl)Cl) of 0.98.
Regarding `CCCCC1(CCCC)c2cc(C#Cc3ccc4ccc5cccc6ccc3c4c56)ccc2-c2ccc(N(c3ccccc3)c3ccccc3)cc21`, where the note is “in Cc1ccccc1”, the photoluminescence quantum yield is 0.72.
The compound `CN(C)c1ccc2cc(C3=[O+][B-](F)(F)OC(c4ccc(C#N)cc4)=C3)ccc2c1` registered a photoluminescence quantum yield (in C1CCOC1) of 0.56; a photoluminescence quantum yield (in CC#N) of 0.007; a photoluminescence quantum yield (in CC(C)=O) of 0.18; a photoluminescence quantum yield (in CS(C)=O) of 0.007; a photoluminescence quantum yield (in Cc1ccccc1) of 0.62; a photoluminescence quantum yield (in ClC(Cl)Cl) of 0.94. The same compound gave a photoluminescence quantum yield (in ClCCl) of 0.87.
With `COc1ccc(C2=C3C=C(/C=C/C(=O)OC(C)(C)C)C=[N+]3[B-](F)(F)n3cccc32)cc1`, the photoluminescence quantum yield (in ClCCl) came out at 0.13.
As to `CC(C)[Si](C#Cc1c2nc3c(nc2c(C#C[Si](C(C)C)(C(C)C)C(C)C)c2nc4c(nc12)C1c2ccccc2C4c2ccccc21)C1c2ccccc2C3c2ccccc21)(C(C)C)C(C)C`, the photoluminescence quantum yield (in CCCCCC) was found to be 0.33.
With `CC1=CC(C)=[N+]2C1=C(c1ccc(N3CCCCC3)cc1)c1c(C)cc(C)n1[B-]2(F)F`, the photoluminescence quantum yield reads like this: (in C1CCOC1) 0.008; (in CC#N) 0.005; (in CC(=O)C(C)(C)C) 0.024; (in CC(C)=O) 0.002; (in CCCCCC) 0.384; (in CCOC(C)=O) 0.006.
With `F[B-]1(F)n2cccc2C(c2c3ccccc3cc3ccccc23)=C2C=CC=[N+]21`, the photoluminescence quantum yield worked out at 0.135 (in CCCCCC), 0.008 (in Cc1ccccc1) and 0.002 (in ClCCl).
`CCN(CC)c1ccc(/C=N/c2ccccc2/N=C/c2ccc(N(CC)CC)cc2O)c(O)c1` displayed a photoluminescence quantum yield (in CC#N) of 0.22.
`c1ccc2cc3c4c(ccc3cc2c1)-c1cccc2cccc-4c12`: the photoluminescence quantum yield (in CCCCCCC) worked out at 0.023.
`CN(C)c1ccc(C2=Nc3scc(-c4ccc([N+](=O)[O-])cc4)[n+]3[B-](F)(F)O2)cc1`: the photoluminescence quantum yield reads like this: (in C1CCOC1) 0.001; (in CC#N) 0.001; (in Cc1ccccc1) 0.001; (in ClCCl) 0.001.
As for `O=[N+]([O-])c1ccc(/C2=C3N=C(C(c4ccccc4)=C/3c3ccccc3)/C(c3ccc([N+](=O)[O-])cc3)=c3\[nH]/c(c(-c4ccccc4)c3-c3ccccc3)=C(/c3ccc([N+](=O)[O-])cc3)C3=N/C(=C(/c4ccc([N+](=O)[O-])cc4)c4[nH]c2c(-c2ccccc2)c4-c2ccccc2)C(c2ccccc2)=C3c2ccccc2)cc1`, where the note is “in ClCCl”, the photoluminescence quantum yield came to 0.003.
Take `CCOC(=O)COc1ccc(/C=C/c2c(CC)c(C)c3n2[B-](F)(F)[N+]2=C(c4[nH]c(C)c(CC)c4C)c4ccccc4C2=C3C)cc1`: the photoluminescence quantum yield reads like this: (in C1CCOC1) 0.28; (in CC#N) 0.09; (in CCCCCC) 0.74; (in CO) 0.2; (in Cc1ccccc1) 0.71; (in ClCCl) 0.68.
For `N#Cc1c(-n2c3ccc(-c4ccccc4)cc3c3cc(-c4ccccc4)ccc32)c(-n2c3ccccc3c3ccccc32)c(-n2c3ccc(-c4ccccc4)cc3c3cc(-c4ccccc4)ccc32)c(-n2c3ccccc3c3ccccc32)c1-n1c2ccc(-c3ccccc3)cc2c2cc(-c3ccccc3)ccc21`, the photoluminescence quantum yield (in Cc1ccccc1) amounted to 0.83.
In turn, `O=C1c2ccccc2-c2cc3ccccc3c(=O)n21` displayed a photoluminescence quantum yield (in CC#N) of 0.16, a photoluminescence quantum yield (in CO) of 0.02, a photoluminescence quantum yield (in CS(C)=O) of 0.12 and a photoluminescence quantum yield (in ClC(Cl)Cl) of 0.18.
For `N#Cc1ccc(-c2ccc(C3=CCCCC3)s2)s1`, the photoluminescence quantum yield (in CCO) was found to be 0.06.
The compound `Cc1cc2sccc2c2[nH]c3ccccc3c12` gave a photoluminescence quantum yield (in ClCCl) of 0.053.
For `COc1c2ccccc2c(OC)c2c1c1cc(F)ccc1n2C`, the photoluminescence quantum yield reads like this: (in C1CCCCC1) 0.39; (in CC#N) 0.34; (in CO) 0.33; (in ClCCl) 0.37.
On to `F[B-]1(F)n2c(c(-c3ccccc3)c(-c3ccccc3)c2-c2ccccc2)C(c2ccccc2)=C2C(c3ccccc3)=C(c3ccccc3)C(c3ccccc3)=[N+]21`, for which, under “in C1CCOC1”, the photoluminescence quantum yield worked out at 0.2.
As for `COc1ccc(-c2csc(/C(C#N)=C/c3ccncc3)n2)cc1`, the photoluminescence quantum yield by setting is: (in CC#N) 0.04; (in CCO) 0.002; (in CN(C)C=O) 0.016; (in CS(C)=O) 0.038; (in Cc1ccccc1) 0.285; (in ClCCl) 0.129.
Take `C(=C\c1ccc(Nc2ccccc2)cc1)/c1ccccc1`: the photoluminescence quantum yield (in CC#N) came to 0.3 and the photoluminescence quantum yield (in CCCCCC) amounted to 0.51.
Take `Nc1ccccc1`: the photoluminescence quantum yield (in C1CCCCC1) worked out at 0.1.
Turning to `Cc1nnc(-c2cc(-c3nnc(C)o3)c(-n3c4ccccc4c4ccccc43)cc2-n2c3ccccc3c3ccccc32)o1`, the photoluminescence quantum yield (in Cc1ccccc1) came out at 0.068 and the photoluminescence quantum yield under setting [1] was 0.59.
The compound `CCn1c(-c2ccc(-c3ccc(-c4ccc(-c5n(CC)c6ccccc6[n+]5CC)cc4)c(C)c3)cc2)[n+](CC)c2ccccc21` showed a photoluminescence quantum yield (in O) of 0.71.
`F[B-]1(F)n2c(nc(Br)c2Br)-c2cccc[n+]21` gave a photoluminescence quantum yield (in C1CCCCC1) of 0.47; a photoluminescence quantum yield (in C1CCOC1) of 0.32; a photoluminescence quantum yield (in C1COCCO1) of 0.35; a photoluminescence quantum yield (in CC#N) of 0.32; a photoluminescence quantum yield (in CCCCCC) of 0.45; a photoluminescence quantum yield (in CO) of 0.31. For the setting “in ClC(Cl)Cl”, this compound yielded a photoluminescence quantum yield of 0.41.
For the compound `COc1ccc(-n2c3c4ccccc4nc(-c4ccc(C#N)cc4)c3c3c2c2c(-c4ccc(C#N)cc4)nc4ccccc4c2n3-c2ccc(OC)cc2)cc1`, the photoluminescence quantum yield (in ClC(Cl)Cl) worked out at 0.074.
In turn, `Cc1cc(C)c(B(c2cc3c4c(c(B(c5c(C)cc(C)cc5C)c5c(C)cc(C)cc5C)cc5c4c2CCC5)CCC3)c2c(C)cc(C)cc2C)c(C)c1` gave a photoluminescence quantum yield (in CCCCCC) of 0.9.
Turning to `COc1cc2c(cc1OC)C1=C[C@H](c3ccc(C)cc3)C3(C(C#N)=C(C#N)N1CC2)c1cc(Br)ccc1-c1ccc(Br)cc13`, the photoluminescence quantum yield (in ClCCl) amounted to 0.00023.
As to `CCOC(CN1C(=O)C2=C(c3cc4cc(C(C)(C)C)cc(C(C)(C)C)c4o3)N(CC(OCC)OCC)C(=O)C2=C1c1cc2cc(C(C)(C)C)cc(C(C)(C)C)c2o1)OCC`, the photoluminescence quantum yield (in ClC(Cl)Cl) stood at 0.75.
With `CC(C)[Si](C#Cc1c2cc3ccccc3cc2c(C#C[Si](C(C)C)(C(C)C)C(C)C)c2nc3cc4c(cc3nc12)C1c2ccccc2C4c2ccccc21)(C(C)C)C(C)C`, the photoluminescence quantum yield stood at 0.45 (in CCCCCC) and 0.11 (in ClCCl).
Where the note is “in ClCCl”, `CN(C)c1ccc(/C=C/c2cc(/C=C/c3ccc(N(C)C)cc3)ncn2)cc1` yielded a photoluminescence quantum yield of 0.4.
Consider `CCCN1c2ccccc2Sc2cc(/C=C\c3cc(=O)oc4cc(C)c(Cl)cc34)ccc21`, for which the photoluminescence quantum yield (in ClC(Cl)Cl) is 0.77.
Compound `CC(C)CN1C(=O)/C(=C/c2ccc(C#N)cc2)C=C1c1ccccc1` displayed a photoluminescence quantum yield (in C1COCCO1) of 0.153.
`c1ccc(-c2cnc3nn4ccccc4c3c2)cc1` had a photoluminescence quantum yield (in C1CCOC1) of 0.38.
In turn, `COC(=O)C1=C(C(=O)OC)C2(c3ccccc3-c3ccccc32)[C@@H](c2ccc(C)cc2)C=C2c3cc(OC)c(OC)cc3CCN21` had a photoluminescence quantum yield (in ClCCl) of 0.00491.
